Source: US9211305B2, “Pharmaceutical compositions with glycosaminoglycans and use thereof in the treatment of chronic ulcers” (LABORATORIOS FARMACEUTICOS ROVI S.A., priority 2008, dated 2015)
“And” between values parts separate entries of the source, which are not always exact repeats. Identical values can stand only once. “Also recorded” adds a separate entry of the source.

Columns and labels:
[1] = tested on: C57BL/KsJ-db/db diabetic mouse; assay: Example 4: wound healing in genetically diabetic mouse, topical route; assay type: in vivo; details: topical 1000 IU/kg; for histopathological Grade / histopathological Score: 14 days, sacrifice day 15
Procedure: In this case, topical formulations were prepared for the direct administration on the ulcers, the carriers of which formulations are formed by Carbopol, Phenonip®, Span 80, Glycerol and water.
The ulceration and measurement of the area were performed as detailed in the subcutaneous administration assays. On the day after the incision and for a total of 14 days, the assigned treatments, 0.15 ml/animal by topical route in the back of the animal, above the wound, were administered to the animals.
The follow-up of the animals was performed up to a period of 14 days (average time necessary for the healing of the wounds in this animal model). The assessment was performed by means of digital photography of the wound and subsequent image analysis.
The animals were sacrificed on the day after the last administration (day 15) and the area where the wound was made was extracted. The rear portion of the area containing the wound was stored in formol for its histological processing (hematoxylin-eosin staining).
The results were based on the score given by the method of Greenhalgh et al. (1990). Each block was given a histological score from 1 to 15, where 1 means uncured wound and 15 means completely epithelialized wound. The score is based on the degree of cell invasion, the formation of granulation tissue, vascularization and epithelialization: […]

diabetic wistar rat [2] = assay: Example 3: percentage of ulcer healing in diabetic rats, SC route; assay type: in vivo; details: 0.22 mg/rat SC, one rat
Procedure: To perform the present embodiment, doses of 45 mg/kg of streptozocin (STZ) were administered by intramuscular route to make a batch of 10 rats diabetic (Andrades Ja et al. Engineering, expression, and renaturation of a collagen-targeted human bFGF fusion protein. Growth Factors. 2001; 18(4):261-75).
(§1) Male wistar rats with an average weight of 250 g per rat were used, to which a dose of 11.25 mg STZ per rat was administered by means of the intramuscular administration of 100 μL in the left paw of each rat.
(§2) Diabetes was induced in 6 of all the rats and 4 of them were left as a non-diabetic control, to test the result of the healing of chronic ulcers not caused by diabetes.
(§3) Sweetened water (350 mg/dL) was administered to the rats for three days and glucose measurements were performed with a glucometer every day to verify that the rats were indeed diabetized. For this reason, before the administration and at time 4 days after the administration of streptozocin, a drop of blood was extracted from the rat tail vein for the subsequent quantification of glycemia and see whether they were diabetic before starting the ulceration assay.
Once the rats are ready, 2 ulcers with a diameter of 1 cm each were made on them using a scalpel. […]

diabetic wistar rat [3] = assay: Example 1: ulcer area reduction in streptozocin-diabetized rats, subcutaneous route; assay type: in vivo
Procedure: To perform the present example, doses of 45 mg/kg of streptozocin (STZ) were administered by intramuscular route to make a batch of 8 rats diabetic (Andrades Ja et al. Engineering, expression, and renaturation of a collagen-targeted human bFGF fusion protein. Growth Factors. 2001; 18(4):261-75).
as §1
as §3, with “administered to all the rats” for “administered to the rats”, “glycemia and to see whether” for “glycemia and see whether”
Once the rats were diabetized, 4 ulcers with a diameter of 1 cm each were made on them using a scalpel. An anesthesia/analgesia protocol with Ketamine/xylazine was followed according to the recommendations of the book: “Handbook of laboratory animal management and welfare”:
The ulcers were treated with water and cleaned for 9 days after the ulceration.
The administrations of bemiparin were performed by means of a bemiparin solution by subcutaneous route (100 μL) for the treatment of the ulcers.
The diameter of the ulcer was quantified by means of tracing the ulcer onto a transparency to see the progress of the healing.

[4] = tested on: C57BL/KS.Cg-m Lepr^db+/+m mouse; assay: Example 5: wound healing in non-diabetic mouse, subcutaneous route; assay type: in vivo
Procedure: The C57BL/KS.Cg-m Lepr^db+/+m mouse is the non-diabetic analog of the mouse used in the previous example.
On the first day of the assay, the animals were anesthetized (ketamine+xylazine, 100+10 mg/kg, i.m.). The back of the animal was shaved, the area was cleaned with disinfectant and the location of the wound was marked by means of a template to make its position the same in all the animals.
The wound was made by means of a circular incision with a diameter of approximately 1.5 cm, the skin of the mid-dorsal area being removed. A semipermeable dressing was subsequently placed on the wound. 1 mL/animal of physiological serum was administered by i.p. route after the intervention.
The wound area was calculated as the percentage of reduction thereof to evaluate the degree of curing thereof, by means of the standardized formula: […]
The measurement performed immediately after the intervention or incision was used as the baseline area. On the following day and for a total of 14 days, the assigned treatments were administered to the animals.
On the following day and for a total of 14 days, 10 ml/kg were administered to the animals by subcutaneous route in the back of the animal, avoiding the area of the wound.
The follow-up of the animals was performed up to a period of 21 days. The assessment was performed by means of digital photography of the wound and subsequent image analysis.
The animals were sacrificed on day 21 of the study and the area of the skin where the wound was caused was stored in formol to perform a histopathological evaluation (hematoxylin-eosin staining).
Each section was given a histological score in the grade 1 to grade V range, where I means uncured wound and V means completely epithelialized wound. The score is based on the degree of cell invasion, the formation of granulation tissue, vascularization and epithelialization.

non-diabetic rats = assay: Example 3: percentage of ulcer healing in non-diabetic rats, SC route; assay type: in vivo, Wistar rat; details: for percentage of healing of day 9 with respect to day 1, Average: Group 1, non-diabetic, 217 IU/rat SC
Procedure: as §2
Once the rats are ready, 2 ulcers with a diameter of 1 cm each were made on them using a scalpel. An anesthesia/analgesia protocol with ketamine/xylazine was followed according to the recommendations of the book: “Handbook of laboratory animal management and welfare”:
The ulcers were treated with water and cleaned for 9 days after the ulceration. A corresponding solution was administered to each group by SC route (100 μL) for the treatment of the ulcers. The diameter of the ulcer was quantified by means of tracing the ulcer onto a transparency to see the progress of the healing.

factor Xa = assay: Anti-factor Xa activity; assay type: biochemical
[5] = in vivo; cited from earlier work
[6] = subcutaneous 14 days, sacrifice day 21, doses as in the 23rd table

## CO[C@H]1O[C@H](COS(=O)(=O)O)[C@@H](O[C@@H]2O[C@@H](C(=O)O)[C@@H](O[C@H]3O[C@H](COS(=O)(=O)O)[C@@H](O[C@@H]4O[C@H](C(=O)O)[C@@H](O[C@H]5O[C@H](COS(=O)(=O)O)[C@@H](O)[C@H](O)[C@H]5NS(=O)(=O)O)[C@H](O)[C@H]4O)[C@H](OS(=O)(=O)O)[C@H]3NS(=O)(=O)O)[C@H](O)[C@H]2OS(=O)(=O)O)[C@H](O)[C@H]1NS(=O)(=O)O [Fondaparinux]
[1]
  histopathological Grade: III (7-9 Moderately thick granulation tissue. It can vary from being dominated by inflammatory cells to greater presence of fibroblasts and collagen deposition, extensive neovascularization, minimum to moderate epithelial migration.)
  histopathological Score: 8.6
Diabetic wistar rat [2]
  percentage of healing of day 9 with respect to day 1, Average: 50.22%
Diabetic wistar rat [2]; single ulcers
  percentage of healing of day 9 with respect to day 1: A 50.99%; also recorded: B 49.55%

## Bemiparin
Diabetic wistar rat [3]; 108 IU rat, subcutaneous, ulcer E excluded
  percentage of area reduction of day 9 with respect to day 1, Average: 24.39 ± 7.47%
Diabetic wistar rat [3]; 217 IU rat compared with 108 IU rat
  macroscopic healing process: macroscopically much better
Diabetic wistar rat [3]; 217 IU rat, subcutaneous
  percentage of area reduction of day 9 with respect to day 1, Average: 27.35 ± 7.25%
Diabetic wistar rat [3]; single ulcers, 217 IU rat, subcutaneous
  percentage of area reduction of day 9 with respect to day 1: 26.2% and 20.14% and 25.64% and 37.43%
[1]
  histopathological Grade: III (7-9 Moderately thick granulation tissue. It can vary from being dominated by inflammatory cells to greater presence of fibroblasts and collagen deposition, extensive neovascularization, minimum to moderate epithelial migration.)
  histopathological Score: 8.7
[1]; end of the treatment (14 days)
  area reduction: greater than 60%
[4]; subcutaneous 1000 IU Xa/kg
  healing rate with respect to the control: does not improve the healing rate
[4]; [6]
  histopathological Grade: III (7-9 Moderately thick granulation tissue. It can vary from being dominated by inflammatory cells to greater presence of fibroblasts and collagen deposition, extensive neovascularization, minimum to moderate epithelial migration.)
  histopathological Score: 8
non-diabetic rats; Group 1 (217 IU/rat) compared with the rest of groups
  macroscopic healing process: macroscopically much better
non-diabetic rats
  percentage of healing of day 9 with respect to day 1, Average: 71.82%
non-diabetic rats; listed as bemiparin
  percentage of healing of day 9 with respect to day 1, Average: 71.82%
Factor Xa
  anti-Xa/anti-IIa ratio: greater than 8
[5]
  Plasma Half-Life: 5.3 h
  Plasma Half-Life Range: 5.2 to 5.4 h
